Reference: the NIST ThermoML archive (doi:10.1016/j.jct.2016.11.019)
± gives the expanded uncertainty stated by the source.

Test: Molar enthalpy of transition or fusion
Details: Crystal; DSC

Molar enthalpy of transition or fusion: 6.87 ± 0.237 kcal/mol
SMILES: Nc1cc(Cl)ccc1C(=O)O [2-amino-4-chlorobenzoic acid]
